Results as given in US12679878B2, “CRF2 receptor agonists and their use in therapy” (SANOFI, priority 2020, dated 2026).
In brackets after ≈: the same amount, converted by molar mass. Starred links: 1 amine or outer side, 2 acyl side, 3 side chain; linkers in the order of their positions; H or OH if unused. Non-standard residues stand in square brackets, D forms with d. Residues, ends and D or L forms follow the SMILES beside them. Groups on a side chain read outwards from the residue. *: point of attachment. γGlu = O=C(O)[C@H](CCC(=O)[*:2])N[*:1]; Palmitoyl = CCCCCCCCCCCCCCCC(=O)*; Aib = CC(C)(N)C(=O)O

How the values were obtained:
human CRF2α receptor = target: T1, human CRF2α receptor (Homo sapiens, UniProt Q13324); experiment: cAMP agonism at human CRF2 α receptor in TeloHEAC cells (Example 7); assay type: cell-based; conditions: cAMP HTRF, TeloHEAC cells stably expressing human CRF2 α, 0% HSA; read-out: EC50 [nM], 0% HSA
T1 construct: expressed in transfected cells; host or cells: TeloHEAC
T1 sequence (Q13324 1-411): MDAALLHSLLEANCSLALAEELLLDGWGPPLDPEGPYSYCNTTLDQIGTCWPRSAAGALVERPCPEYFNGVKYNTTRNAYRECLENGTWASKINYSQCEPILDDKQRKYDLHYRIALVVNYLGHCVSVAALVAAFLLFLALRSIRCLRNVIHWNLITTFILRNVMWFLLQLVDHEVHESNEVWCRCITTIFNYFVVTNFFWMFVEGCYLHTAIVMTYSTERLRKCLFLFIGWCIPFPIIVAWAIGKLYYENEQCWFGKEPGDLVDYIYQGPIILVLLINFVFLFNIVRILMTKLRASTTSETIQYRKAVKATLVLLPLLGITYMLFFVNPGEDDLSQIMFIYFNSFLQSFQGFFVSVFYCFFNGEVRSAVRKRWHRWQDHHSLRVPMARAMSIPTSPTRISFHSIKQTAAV
Outline: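 Steps: thaw and wash cells; suspend in 1×HBSS, 20 mM HEPES, 0 or 0.1% HSA, 2 mM IBMX; add compound, 30 min RT; lyse with HTRF reagents, 1 h; read 665/620 nm. EC50 calculated, E% versus 1000 nM UCN2.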

[1] = Solubility in buffer systems by UPLC-UV (Example 13); assay type: physicochemical
Procedure: Prior to performing the solubility measurements, the purity of the compounds was determined through UPLC/MS. […] Therefore, solutions from solid samples were prepared in a buffer system with a concentration of 10 mg/mL compound based on the previously determined % purity.
UPLC-UV was performed after 1 hour of gentle agitation from the supernatant, which was obtained after 15 minutes of centrifugation at 2500 RCF (relative centrifugal acceleration). The solubility was determined by the comparison of the UV peak area of a 2 μL-injection of a buffered sample diluted 1:10 with a standard curve of a reference compound with known concentration. The different UV extinction coefficients of sample and reference compound were calculated based on the different amino acid sequences and considered in the concentration calculation.

CRF1R receptor = target: T2, CRF1R receptor (Homo sapiens, UniProt P34998); experiment: cAMP activity at anti-target CRF1R, CRF1R-overexpression CHO cell line (Example 9); assay type: cell-based; conditions: CRF1R-overexpression CHO cell line; for EC50: 0% HSA; for Emax: read-out: Emax (%)
T2 construct: host or cells: CHO-K1 clone 2
T2 sequence (P34998 24-415): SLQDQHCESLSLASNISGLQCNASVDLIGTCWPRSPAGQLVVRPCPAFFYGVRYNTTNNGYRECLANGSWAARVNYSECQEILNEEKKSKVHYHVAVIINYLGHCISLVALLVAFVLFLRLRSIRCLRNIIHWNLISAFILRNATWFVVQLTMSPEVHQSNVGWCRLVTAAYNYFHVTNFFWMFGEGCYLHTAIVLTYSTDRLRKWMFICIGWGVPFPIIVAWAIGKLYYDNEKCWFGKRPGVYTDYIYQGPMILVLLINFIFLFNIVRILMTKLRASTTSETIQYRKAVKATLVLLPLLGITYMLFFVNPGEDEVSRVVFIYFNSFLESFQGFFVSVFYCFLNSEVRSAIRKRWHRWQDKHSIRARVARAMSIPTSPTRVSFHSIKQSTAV
Outline: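 Using thawed CRF1R-overexpressing CHO cells at 2000 per well, compound is applied for 30 min at RT in HBSS/HEPES buffer with IBMX. Cellular cAMP content is determined via HTRF, and percent activity is calculated against 1000 nM UCN2 defined as 100%.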

[2] = pH 4.5, Solubility in Buffer B [mg/ml]
[3] = pH 7.4, Solubility in Buffer C [mg/ml]
[4] = pH 4.5, Solubility in Buffer A [mg/ml]

| EC50 (human CRF2α receptor) | solubility at 1 h [1, 2] | EC50 (CRF1R receptor) | Emax (CRF1R receptor) | solubility at 1 h [1, 3] | solubility at 1 h [1, 4] | SMILES |
| --- | --- | --- | --- | --- | --- | --- |
| 0.01 nM | > 8800 µg/mL | – | – | – | – | CCCCCCCCCCCCCCCC(=O)N[C@@H](CCC(=O)NCCCC[C@H](NC(=O)[C@H](CC(C)C)NC(=O)[C@H](CCCCN)NC(=O)[C@@H](NC(=O)[C@@H]1CCCN1C(=O)[C@@H](NC(=O)[C@H](CC(=O)O)NC(=O)[C@H](CC(C)C)NC(=O)[C@H](CO)NC(=O)[C@H](CC(C)C)NC(=O)[C@@H](NC(=O)[C@@H](N)[C@@H](C)CC)C(C)C)C(C)C)[C@@H](C)CC)C(=O)N[C@@H](CCCCN)C(=O)N[C@H](C(=O)N[C@@H](CC(C)C)C(=O)N[C@@H](CC(C)C)C(=O)N[C@@H](CCC(=O)O)C(=O)N[C@@H](CCC(N)=O)C(=O)N[C@@H](CCC(=O)O)C(=O)N[C@@H](CCCCN)C(=O)N[C@@H](CCC(N)=O)C(=O)N[C@@H](CCC(=O)O)C(=O)N[C@@H](CCCCN)C(=O)N[C@@H](CCC(=O)O)C(=O)N[C@@H](CCCCN)C(=O)N[C@@H](CCC(N)=O)C(=O)N[C@@H](CCC(N)=O)C(=O)N[C@@H](C)C(=O)N[C@@H](CCC(=O)O)C(=O)N[C@@H](CCCCN)C(=O)N[C@@H](CC(N)=O)C(=O)N[C@@H](C)C(=O)N[C@@H](CCC(N)=O)C(=O)N[C@H](C(=O)N[C@@H](CC(C)C)C(=O)N[C@@H](C)C(=O)N[C@@H](CCC(N)=O)C(=O)N[C@H](C(N)=O)C(C)C)[C@@H](C)CC)[C@@H](C)CC)C(=O)O [compound 3] (H-IVLSLDVPIKLK([γGlu-Palmitoyl])KILLEQEKQEKEKQQAEKNAQILAQV-NH2) |
| – | – | > 1000 nM | 10.2% | > 10000 µg/mL | – | CCCCCCCCCCCCCCCC(=O)N[C@@H](CCC(=O)NCCCC[C@H](NC(=O)[C@@H](NC(=O)[C@H](CCCCN)NC(=O)[C@@H](NC(=O)[C@@H]1CCCN1C(=O)[C@@H](NC(=O)[C@H](CC(=O)O)NC(=O)[C@H](CC(C)C)NC(=O)[C@H](CO)NC(=O)[C@H](CC(C)C)NC(=O)[C@@H](NC(=O)[C@@H](N)Cc1ccccc1)[C@@H](C)O)C(C)C)[C@@H](C)O)[C@@H](C)CC)C(=O)N[C@@H](CCC(N)=O)C(=O)N[C@@H](CCCCN)C(=O)N[C@@H](CC(C)C)C(=O)N[C@@H](CC(C)C)C(=O)N[C@@H](CCCCN)C(=O)N[C@@H](CCC(N)=O)C(=O)N[C@@H](CCC(=O)O)C(=O)N[C@@H](CCCCN)C(=O)N[C@@H](CCC(N)=O)C(=O)N[C@@H](CCCCN)C(=O)N[C@@H](CCCCN)C(=O)N[C@@H](CCC(N)=O)C(=O)N[C@@H](CCCNC(=N)N)C(=O)N[C@@H](CCC(N)=O)C(=O)N[C@@H](CCCCN)C(=O)N[C@@H](C)C(=O)N[C@@H](CCCCN)C(=O)N[C@H](C(=O)N[C@@H](CC(N)=O)C(=O)N[C@@H](CCCCN)C(=O)N[C@@H](CCC(N)=O)C(=O)N[C@H](C(=O)N[C@@H](CC(C)C)C(=O)N[C@@H](CCC(=O)O)C(=O)N[C@@H](CCC(N)=O)C(=O)N[C@H](C(N)=O)C(C)C)[C@@H](C)CC)[C@@H](C)O)C(=O)O [compound 10] (H-FTLSLDVPTKIK([γGlu-Palmitoyl])QKLLKQEKQKKQRQKAKTNKQILEQV-NH2) |
| 0.18 nM | – | > 1000 nM | 14.1% | > 8700 µg/mL | > 9100 µg/mL | CCCCCCCCCCCCCCCC(=O)N[C@@H](CCC(=O)NCCCC[C@H](NC(=O)[C@@H](NC(=O)[C@H](CCCCN)NC(=O)[C@@H](NC(=O)[C@@H]1CCCN1C(=O)[C@@H](NC(=O)[C@H](CC(=O)O)NC(=O)[C@H](CC(C)C)NC(=O)[C@H](CO)NC(=O)[C@H](CC(C)C)NC(=O)[C@@H](NC(=O)[C@@H](N)Cc1ccccc1)[C@@H](C)O)C(C)C)[C@@H](C)O)[C@@H](C)CC)C(=O)N[C@@H](CCC(N)=O)C(=O)N[C@@H](CCCCN)C(=O)N[C@@H](CC(C)C)C(=O)N[C@@H](CC(C)C)C(=O)N[C@@H](CCCCN)C(=O)N[C@@H](CCC(N)=O)C(=O)N[C@@H](CCC(=O)O)C(=O)N[C@@H](CCCCN)C(=O)N[C@@H](CCC(N)=O)C(=O)N[C@@H](CCCNC(=N)N)C(=O)N[C@@H](CCCCN)C(=O)N[C@@H](CCC(N)=O)C(=O)N[C@@H](CCCCN)C(=O)N[C@@H](CCC(N)=O)C(=O)N[C@@H](CCCCN)C(=O)N[C@@H](C)C(=O)N[C@@H](CCCCN)C(=O)N[C@H](C(=O)N[C@@H](CC(N)=O)C(=O)N[C@@H](C)C(=O)N[C@@H](CCCCN)C(=O)N[C@H](C(=O)N[C@@H](CC(C)C)C(=O)N[C@@H](C)C(=O)N[C@@H](CCCNC(=N)N)C(=O)N[C@H](C(N)=O)C(C)C)[C@@H](C)CC)[C@@H](C)O)C(=O)O [compound 14] (H-FTLSLDVPTKIK([γGlu-Palmitoyl])QKLLKQEKQRKQKQKAKTNAKILARV-NH2; N-terminus assumed) |
| 0.01 nM | > 9100 µg/mL | – | – | 6800 µg/mL (≈ 1370 µM) | > 9500 µg/mL | CCCCCCCCCCCCCCCC(=O)N[C@@H](CCC(=O)NCCCC[C@H](NC(=O)[C@H](CC(C)C)NC(=O)[C@H](CCCCN)NC(=O)[C@@H](NC(=O)[C@@H]1CCCN1C(=O)[C@H](NC(=O)[C@H](CC(=O)O)NC(=O)[C@H](CC(C)C)NC(=O)[C@H](CO)NC(=O)[C@H](CC(C)C)NC(=O)[C@@H](NC(=O)[C@@H](N)[C@@H](C)CC)C(C)C)C(C)C)[C@@H](C)O)C(=O)N[C@@H](CCC(N)=O)C(=O)N[C@@H](CCCCN)C(=O)N[C@@H](CC(C)C)C(=O)N[C@@H](CC(C)C)C(=O)N[C@@H](CCCCN)C(=O)N[C@@H](CCC(N)=O)C(=O)N[C@@H](CCC(=O)O)C(=O)N[C@@H](CCCNC(=N)N)C(=O)N[C@@H](CCC(N)=O)C(=O)N[C@@H](CCCNC(=N)N)C(=O)N[C@@H](CCCCN)C(=O)NC(C)(C)C(=O)N[C@@H](CCCNC(=N)N)C(=O)N[C@@H](CCC(=O)O)C(=O)N[C@@H](CCC(N)=O)C(=O)N[C@@H](C)C(=O)N[C@@H](CCC(=O)O)C(=O)N[C@@H](CCCCN)C(=O)N[C@@H](CC(N)=O)C(=O)N[C@@H](CCCCN)C(=O)N[C@@H](CCCNC(=N)N)C(=O)N[C@H](C(=O)N[C@@H](CC(C)C)C(=O)N[C@@H](CCC(=O)O)C(=O)N[C@@H](CCCNC(=N)N)C(=O)N[C@H](C(N)=O)C(C)C)[C@@H](C)CC)C(=O)O [compound 20] (H-IVLSLD[dV]PTKLK([γGlu-Palmitoyl])QKLLKQERQRK[Aib]REQAEKNKRILERV-NH2; N-terminus assumed) |
| 0.02 nM | – | – | – | 9100 µg/mL (≈ 1830 µM) | – | CCCCCCCCCCCCCCCC(=O)N[C@@H](CCC(=O)NCCCC[C@H](NC(=O)[C@H](CC(C)C)NC(=O)[C@H](CCCCN)NC(=O)[C@@H](NC(=O)[C@@H]1CCCN1C(=O)[C@H](NC(=O)[C@H](CC(=O)O)NC(=O)[C@H](CC(C)C)NC(=O)[C@H](CO)NC(=O)[C@H](CC(C)C)NC(=O)[C@@H](NC(=O)[C@@H](N)[C@@H](C)CC)C(C)C)C(C)C)[C@@H](C)O)C(=O)N[C@@H](CCC(N)=O)C(=O)N[C@@H](CCCCN)C(=O)N[C@@H](CC(C)C)C(=O)N[C@@H](CC(C)C)C(=O)N[C@@H](CCCCN)C(=O)N[C@@H](CCC(N)=O)C(=O)N[C@@H](CCC(=O)O)C(=O)N[C@@H](CCCNC(=N)N)C(=O)N[C@@H](CCC(N)=O)C(=O)N[C@@H](CCCNC(=N)N)C(=O)N[C@@H](CCCCN)C(=O)N[C@@H](CCC(=O)O)C(=O)N[C@@H](CCCNC(=N)N)C(=O)NC(C)(C)C(=O)N[C@@H](CCC(N)=O)C(=O)N[C@@H](C)C(=O)N[C@@H](CCC(=O)O)C(=O)N[C@@H](CCCCN)C(=O)N[C@@H](CC(N)=O)C(=O)N[C@@H](CCCCN)C(=O)N[C@@H](CCCNC(=N)N)C(=O)N[C@H](C(=O)N[C@@H](CC(C)C)C(=O)N[C@@H](CCC(=O)O)C(=O)N[C@@H](CCCNC(=N)N)C(=O)N[C@H](C(N)=O)C(C)C)[C@@H](C)CC)C(=O)O [compound 23] (H-IVLSLD[dV]PTKLK([γGlu-Palmitoyl])QKLLKQERQRKER[Aib]QAEKNKRILERV-NH2; N-terminus assumed) |
